From patent US20250275540A1, “USE OF PROTOPORPHYRINOGEN OXIDASE” (BEIJING DABEINONG BIOTECHNOLOGY CO., LTD., priority 2022, published 2025)

Test system: transgenic Arabidopsis thaliana T1 plants
Assay: Detection of the herbicide tolerance of the transgenic Arabidopsis thaliana plants
Type: in vivo
Details: for The grade of pesticide damage/plant: 0 / The grade of pesticide damage/plant: 1 / The grade of pesticide damage/plant: 2 / The grade of pesticide damage/plant: 3: 7 DAT
Description: The transformed Arabidopsis thaliana T1 plants were initially selected using glufosinate herbicide. The Arabidopsis thaliana T1 plants (PPOA-01) into which the PPOA-01 nucleotide sequence was introduced, the Arabidopsis thaliana T1 plants (PPOB-01) into which the PPOB-01 nucleotide sequence was introduced, the Arabidopsis thaliana T1 plants (PPOC-01) into which the PPOC-01 nucleotide sequence was introduced, the Arabidopsis thaliana T1 plants (PPOD-01) into which the PPOD-01 nucleotide sequence was introduced, the Arabidopsis thaliana T1 plants (PPOE-01) into which the PPOE-01 nucleotide sequence was introduced, the Arabidopsis thaliana T1 plants (PPOF-01) into which the PPOF-01 nucleotide sequence was introduced, the Arabidopsis thaliana T1 plants (PPO-AP-01) into which the PPO-AP-01 nucleotide sequence was introduced, and the Arabidopsis thaliana T1 plants (control vector) into which the control vector was introduced, the wild-type Arabidopsis thaliana plants (CK) (with 24 plants being included in each genotype) (18 days after sowing) were sprayed with saflufenacil at three concentrations (25 g ai/ha (one-fold field concentration, 1×), 100 g ai/ha (four-fold field concentration, 4×), and 0 g ai/ha (water, 0×)), oxyfluorfen at three concentrations (180 g ai/ha (one-fold field concentration, 1×), 720 g ai/ha (four-fold field concentration, 4×), and 0 g ai/ha (water, 0×)), and flumioxazin at three concentrations (60 g ai/ha (one-fold field concentration, 1×), 240 g ai/ha (four-fold field concentration, 4×), and 0 g ai/ha (water, 0×) to determine the tolerance of Arabidopsis thaliana to the herbicides. After 7 days of spraying (7 DAT), the damage level of each plant caused by the herbicide was evaluated according to the average of the damage levels (%) of plants (the average of the damage levels (%) of plants=the injured leaf area/the total leaf area×100%), i.e., the grade of pesticide damage: grade 0 means that the growth status of plants is essentially consistent with those sprayed with the blank solvent (water); grade 1 means that the average of the damage levels of plants is less than 10%; grade 2 means that the average of the damage levels of plants is greater than 10%; and grade 3 means that the average of the damage levels of plants is 100%. The plants having a growth status falling within grades 0 and 1 are classified as highly resistant plants; those having a growth status falling within grade 2 are classified as poorly resistant plants; and those having a growth status falling within grade 3 are classified as non-resistant plants.

[1] = genotype Control vector, 25 g ai/ha
[2] = genotype Control vector, 100 g ai/ha
[3] = genotype PPO-AP-01, 100 g ai/ha

Compound: CC(C)N(C)S(=O)(=O)NC(=O)c1cc(-n2c(=O)cc(C(F)(F)F)n(C)c2=O)c(F)cc1Cl [saflufenacil, N′-[2-chloro-4-fluoro-5-(3-methyl-2,6-dioxo-4-(trifluoromethyl)-3,6-dihydro-1 (2H)-pyrimidine)benzoyl]-N-isopropyl-N-methylsulfamide]
- effective dose distinguishing sensitive plants from plants having an average level of resistance (Arabidopsis thaliana): 25 g ai/ha
- The grade of pesticide damage/plant: 0 (genotype CK, 25 g ai/ha): 0 plant
- The grade of pesticide damage/plant: 1 (genotype CK, 25 g ai/ha): 0 plant
- The grade of pesticide damage/plant: 2 (genotype CK, 25 g ai/ha): 0 plant
- The grade of pesticide damage/plant: 3 (genotype CK, 25 g ai/ha): 24 plant
- The grade of pesticide damage/plant: 0 (genotype CK, 100 g ai/ha): 0 plant
- The grade of pesticide damage/plant: 1 (genotype CK, 100 g ai/ha): 0 plant
- The grade of pesticide damage/plant: 2 (genotype CK, 100 g ai/ha): 0 plant
- The grade of pesticide damage/plant: 3 (genotype CK, 100 g ai/ha): 24 plant
- The grade of pesticide damage/plant: 0 [1]: 0 plant
- The grade of pesticide damage/plant: 1 [1]: 0 plant
- The grade of pesticide damage/plant: 2 [1]: 0 plant
- The grade of pesticide damage/plant: 3 [1]: 24 plant
- The grade of pesticide damage/plant: 0 [2]: 0 plant
- The grade of pesticide damage/plant: 1 [2]: 0 plant
- The grade of pesticide damage/plant: 2 [2]: 0 plant
- The grade of pesticide damage/plant: 3 [2]: 24 plant
- The grade of pesticide damage/plant: 0 (genotype PPO-AP-01, 25 g ai/ha): 0 plant
- The grade of pesticide damage/plant: 1 (genotype PPO-AP-01, 25 g ai/ha): 0 plant
- The grade of pesticide damage/plant: 2 (genotype PPO-AP-01, 25 g ai/ha): 0 plant
- The grade of pesticide damage/plant: 3 (genotype PPO-AP-01, 25 g ai/ha): 24 plant
- The grade of pesticide damage/plant: 0 [3]: 0 plant
- The grade of pesticide damage/plant: 1 [3]: 0 plant
- The grade of pesticide damage/plant: 2 [3]: 0 plant
- The grade of pesticide damage/plant: 3 [3]: 24 plant
- tolerance to the herbicide (in words) (genotype PPO-AP-01, at different concentrations): no tolerance
- The grade of pesticide damage/plant: 0 (genotype PPOA-01, 25 g ai/ha): 24 plant
- The grade of pesticide damage/plant: 1 (genotype PPOA-01, 25 g ai/ha): 0 plant
- The grade of pesticide damage/plant: 2 (genotype PPOA-01, 25 g ai/ha): 0 plant
- The grade of pesticide damage/plant: 3 (genotype PPOA-01, 25 g ai/ha): 0 plant
- The grade of pesticide damage/plant: 0 (genotype PPOA-01, 100 g ai/ha): 0 plant
- The grade of pesticide damage/plant: 1 (genotype PPOA-01, 100 g ai/ha): 24 plant
- The grade of pesticide damage/plant: 2 (genotype PPOA-01, 100 g ai/ha): 0 plant
- The grade of pesticide damage/plant: 3 (genotype PPOA-01, 100 g ai/ha): 0 plant
- The grade of pesticide damage/plant: 0 (genotype PPOB-01, 25 g ai/ha): 24 plant
- The grade of pesticide damage/plant: 1 (genotype PPOB-01, 25 g ai/ha): 0 plant
- The grade of pesticide damage/plant: 2 (genotype PPOB-01, 25 g ai/ha): 0 plant
- The grade of pesticide damage/plant: 3 (genotype PPOB-01, 25 g ai/ha): 0 plant
- The grade of pesticide damage/plant: 0 (genotype PPOB-01, 100 g ai/ha): 0 plant
- The grade of pesticide damage/plant: 1 (genotype PPOB-01, 100 g ai/ha): 24 plant
- The grade of pesticide damage/plant: 2 (genotype PPOB-01, 100 g ai/ha): 0 plant
- The grade of pesticide damage/plant: 3 (genotype PPOB-01, 100 g ai/ha): 0 plant
- The grade of pesticide damage/plant: 0 (genotype PPOC-01, 25 g ai/ha): 24 plant
- The grade of pesticide damage/plant: 1 (genotype PPOC-01, 25 g ai/ha): 0 plant
- The grade of pesticide damage/plant: 2 (genotype PPOC-01, 25 g ai/ha): 0 plant
- The grade of pesticide damage/plant: 3 (genotype PPOC-01, 25 g ai/ha): 0 plant
- The grade of pesticide damage/plant: 0 (genotype PPOC-01, 100 g ai/ha): 0 plant
- The grade of pesticide damage/plant: 1 (genotype PPOC-01, 100 g ai/ha): 24 plant
- The grade of pesticide damage/plant: 2 (genotype PPOC-01, 100 g ai/ha): 0 plant
- The grade of pesticide damage/plant: 3 (genotype PPOC-01, 100 g ai/ha): 0 plant
- The grade of pesticide damage/plant: 0 (genotype PPOD-01, 25 g ai/ha): 24 plant
- The grade of pesticide damage/plant: 1 (genotype PPOD-01, 25 g ai/ha): 0 plant
- The grade of pesticide damage/plant: 2 (genotype PPOD-01, 25 g ai/ha): 0 plant
- The grade of pesticide damage/plant: 3 (genotype PPOD-01, 25 g ai/ha): 0 plant
- The grade of pesticide damage/plant: 0 (genotype PPOD-01, 100 g ai/ha): 0 plant
- The grade of pesticide damage/plant: 1 (genotype PPOD-01, 100 g ai/ha): 24 plant
- The grade of pesticide damage/plant: 2 (genotype PPOD-01, 100 g ai/ha): 0 plant
- The grade of pesticide damage/plant: 3 (genotype PPOD-01, 100 g ai/ha): 0 plant
- The grade of pesticide damage/plant: 0 (genotype PPOE-01, 25 g ai/ha): 24 plant
- The grade of pesticide damage/plant: 1 (genotype PPOE-01, 25 g ai/ha): 0 plant
- The grade of pesticide damage/plant: 2 (genotype PPOE-01, 25 g ai/ha): 0 plant
- The grade of pesticide damage/plant: 3 (genotype PPOE-01, 25 g ai/ha): 0 plant
- The grade of pesticide damage/plant: 0 (genotype PPOE-01, 100 g ai/ha): 0 plant
- The grade of pesticide damage/plant: 1 (genotype PPOE-01, 100 g ai/ha): 24 plant
- The grade of pesticide damage/plant: 2 (genotype PPOE-01, 100 g ai/ha): 0 plant
- The grade of pesticide damage/plant: 3 (genotype PPOE-01, 100 g ai/ha): 0 plant
- The grade of pesticide damage/plant: 0 (genotype PPOF-01, 25 g ai/ha): 24 plant
- The grade of pesticide damage/plant: 1 (genotype PPOF-01, 25 g ai/ha): 0 plant
- The grade of pesticide damage/plant: 2 (genotype PPOF-01, 25 g ai/ha): 0 plant
- The grade of pesticide damage/plant: 3 (genotype PPOF-01, 25 g ai/ha): 0 plant
- The grade of pesticide damage/plant: 0 (genotype PPOF-01, 100 g ai/ha): 0 plant
- The grade of pesticide damage/plant: 1 (genotype PPOF-01, 100 g ai/ha): 24 plant
- The grade of pesticide damage/plant: 2 (genotype PPOF-01, 100 g ai/ha): 0 plant
- The grade of pesticide damage/plant: 3 (genotype PPOF-01, 100 g ai/ha): 0 plant
- tolerance to the herbicide (in words) (genotypes PPOA-01 to PPOF-01, at different concentrations, compared with the control vector and CK): high-resistant tolerance
